# Assay results taken from patent US20040167217A1, “Neuroprotective effects of polyphenolic compounds” (priority 2003, published 2004).
# Assays:
# Format in all cases: cell-based, rat
# [1] = tested on: cortical neurons; experiment: Glucose oxidase (GOX)-mediated cellular injury, Alamar blue cell viability
# Procedure: To better assess the neuroprotective activity of curcumin, cell viability was determined for cortical neurons treated with 25 μM curcumin for 12 h followed by incubation for 2 h in the presence of glucose oxidase (100 mU/ml). This oxidant system generates hydrogen peroxide at a constant rate and is known to promote cellular injury in vitro^14. After treatment with glucose oxidase, cells were washed and exposed to complete medium containing 1% Alamar blue for 5 h according to manufacturers' instruction (Serotec, UK), in order to assess cell viability. After the 2 h incubation period, optical density in the medium of each well was measured using a plate reader (Molecular Devices; Crawley, UK). The assay is based on detection of metabolic activity of living cells using a redox indicator, which changes from oxidized (blue) to reduced (red) form. The intensity of the red color is proportional to the viability of cells, which is calculated as a difference in absorbance between 570 nm and 600 nm and expressed as a percentage of control. […] However, exposure of cells for 24 h to curcumin 25 μM reduced glucose oxidase-mediated damage and restored cell viability to 70% of control.
# An inhibitor of HO-1 activity may be used to determine whether or not the effects of the polyphenolic compounds or analogs thereof are induced through the heme oxygenase signaling pathway. To understand the relevance of the induction of the stress protein HO-1 on the neuroprotective effects afforded by curcumin we treated cortical neuron exposed to β-amyloid with curcumin ([…]) alone or in the presence of tinprotoporphirine IX (SnPP) 40 μM, a specific inhibitor of HO-1 activity. The same treatment was performed in cortical neurons exposed to GOX-induced cellular damage.
# [2] = tested on: heme oxygenase; experiment: Heme oxygenase activity assay in cortical neurons
# Procedure: The ability of curcumin to interact with the heme oxygenase (HO) pathway in primary cortical neurons was tested. Cells were exposed to various concentrations of curcumin (1-100 μM) and heme oxygenase activity. HO-1 mRNA and protein expression were determined at different times after treatment. N-acetyl cysteine (NAC; 1 mM), a precursor of glutathione and a sulphydril donor with potent anti-oxidant properties, was also used to examine whether changes in heme oxygenase activity by curcumin are mediated by pro-oxidant mechanisms. Heme oxygenase activity assays were performed using a modified methodology previously described by […], et al.^15 Cells were washed with PBS, scraped off their plates, separated by centrifugation, and resuspended in a solution containing 100 mM PBS and 2mM MgCl2, freeze/thawed three times, and finally sonicated. The supernatant was added to a reaction mixture containing nicotinamide adenine dinucleotide phosphate (NADPH) (0.8 mM), glucose 6-phosphate (2 mM), glucose-6-phosphate dehydrogenase (0.2 units), 3 mg of rat liver cytosol prepared from a 105,000×g supernatant fraction as a source of biliverdin reductase, potassium phosphate buffer (PBS, 100 mM, pH 7.4), MgCl2 (0.2 mM), and hemin (20 μM). The reaction was conducted at 37° C. in the dark for 1 h and terminated by the addition of 1 ml of chloroform. The amount of extracted bilirubin was calculated by the difference in absorbance between 464 nm and 530 nm (ε=40 mM^-1 cm^-1). Heme oxygenase activity was expressed as picomoles of bilirubin/mg of cell protein/h. The total protein content of confluent cells was determined using a Bio-Rad DC protein assay (Bio-Rad; Herts, UK) by comparison with a standard curve obtained with bovine serum albumin.
# [3] = tested on: hsp70; experiment: hsp70 protein expression, Western blot, cortical neurons
# Procedure: HO-1 and hsp70 protein levels were assessed by Western immunoblot technique using a polyclonal rabbit anti-HO-1 antibody (Stressgen; Victoria, Canada), and a polyclonal rabbit hsp70 antibody. Briefly, an equal amount of proteins (30 μg) for each sample was separated by SDS-polyacrylamide gel electrophoresis and transferred to nitrocellulose membranes, and the non-specific antibodies were blocked with 3% non-fat dried milk in PBS. Membranes were then probed with a polyclonal rabbit anti HO-1 antibody (Stressgen) (1:1000 dilution in Tris-buffered saline, pH 7,4) or with a monoclonal rabbit anti-Hsp72 antibody (Amersham Pharmacia Biotechnology) (1:1000 dilution in Tris-buffered saline, pH 7,4), that recognizes only the Hsp 70 inducible isoform. Blots were then visualized using an amplified alkaline phosphate kit from Sigma.
# [4] = tested on: HO-1 mRNA; experiment: HO-1 mRNA expression, semi-quantitative RT-PCR, cortical neurons
# Procedure: A semi-quantitative RT-PCR was performed to investigate the activity of curcumin on HO-1 mRNA expression, using specific HO-1 primers (FIG. 8) that generated a 123 bp product. […] The HO-2 primers generated a 331-bp PCR product. […] In order to test the effects of polyphenolic compounds, or analogs thereof, on heme oxygenase activity, curcumin and CAPE were added to cortical neurons for analysis. Heme oxygenase activities resulting from curcumin and CAPE treatment are shown in FIGS. 7A and 9A, respectively. Neuroprotective protein expression is observed in FIGS. 7B-C and 9B. The activity of curcumin on HO-1 mRNA expression may be measured to ensure that heme oxygenase activity correlates with mRNA expression (FIG. 8). Semi-quantitative reverse transcriptase-polymerase chain reaction using HO-1 and HO-2 (control) forward and reverse primers are as follows: […]
smiles,measurement,setting,value
"COc1cc(C=CC(=O)CC(=O)C=Cc2ccc(O)c(OC)c2)ccc1O [curcumin, 1,7-bis[4-Hydroxy-3-methoxyphenyl]-1,6-heptadiene-3,5-dione]",cell viability after glucose oxidase,"[1]; 25 μM, then glucose oxidase 100 mU/ml for 2 h",70 % of control
same,"cell viability, GOX-induced cellular damage (in words)",[1]; curcumin alone,able to overcome the apoptotic effects of GOX alone
same,"cell viability, GOX-induced cellular damage in the presence of SnPP",[1]; curcumin plus SnPP 40 μM,only partially in combination with SnPP
same,"maximal heme oxygenase activity, increase over control","[2]; 25 μM, 6h",10 fold
same,heme oxygenase activity,[2]; 50 μM,gradually decreased to those of control values
same,heme oxygenase activity,"[2]; 1-50 μM, 6h",concentration-dependent increase in heme oxygenase activity
same,dose-dependent induction of heme oxygenase activity,[2]; 24h exposure,maintained after 24h exposure
same,hsp70 protein expression,[3],induced hsp70 protein expression
same,HO-1 mRNA expression,[4],dose-dependent over-expression of HO-1 mRNA
